From patent US6982260B1, “Quinazolines and their use for inhibiting cyclin-dependent kinase enzymes” (Warner-Lambert Company, priority 1999, dated 2006)
Where two headings read alike, the source gives them in different places.

Tests used:
neointima formation = conditions: intraluminal exposure of a denuded rat carotid artery; cited from earlier work
[1] = test system: herpes simplex virus (HSV); conditions: cited from earlier work
cdk2/A = cdk2/A (Homo sapiens, UniProt P24941); test: cdk2/A kinase assay; type: biochemical; conditions: 32P incorporation into retinoblastoma, 25° C., 15 minutes; read-out: Cdk2A IC50
Procedure: (§1) All components except the ATP were added to the wells, and the plate was placed on a plate mixer for 2 minutes. The reaction was begun by addition of [^32P]ATP, and the plate was incubated at 25° C. for 15 minutes. The reaction was terminated by addition of 0.1 mL of 20% TCA. The plate was kept at 4° C. for at least 1 hour to allow the substrate to precipitate. The wells were then washed five times with 0.2 mL of 10% TCA and ^32P incorporation determined with a beta plate counter (Wallac Inc., Gaithersburg, Md.).

cdc2/cyclinB = cdc2/cyclinB (Homo sapiens, UniProt P06493); test: cdc2/cyclinB kinase assay (Table 1, CdkB); type: biochemical; conditions: 32P incorporation into retinoblastoma, 25° C., 15 minutes
Procedure: as §1

cdk2/cyclinE = cdk2/cyclinE (Homo sapiens, UniProt P24941); test: cdk2/cyclinE kinase assay; type: biochemical; conditions: 32P incorporation into retinoblastoma, 25° C., 15 minutes; read-out: Cdk2E IC50
Procedure: as §1

cdk4/D = cdk4/D (Homo sapiens, UniProt P11802); test: Cyclin-Dependent Kinase 4 (cdk4) Assay; type: biochemical
Procedure: As noted above, the compounds of this invention are potent inhibitors of cyclin-dependent kinases, and accordingly, are useful in treating and preventing neurodegenerative disorders, atherosclerosis, and other cell proliferative disorders like cancer. […] A typical assay, for instance, measures inhibitory activity against the cyclin D dependent kinase 4 enzyme (cdk4/D). […] The cdk4 assay was carried out as follows.
Cyclin-Dependent Kinase 4 (cdk4) Assay
Enzyme assays for IC50 determinations (Table 1 above) and kinetic evaluation were performed in 96 well filter plates (Millipore MADVN6550). The total volume was 0.1 mL containing a final concentration of 20 mM TRIS (tris[hydroxymethyl]aminomethane), at pH 7.4, 50 mM NaCl, 1 mM dithiothreitol, 10 mM MgCl2, 25 μM ATP containing 0.25 μCi of [^32P]ATP, 20 ng of cdk4, 1 μg of retinoblastoma, and appropriate dilutions of a compound of the present invention. All components except the ATP were added to the wells, and the plate was placed on a plate mixer for 2 minutes. The reaction was started by adding [^32P]ATP and the plate was incubated at 25° C. for 15 minutes. The reaction was terminated by addition of 0.1 mL of 20% trichloroacetic acid (TCA). The plate was kept at 4° C. for at least 1 hour to allow the substrate to precipitate. The wells were then washed five times with 0.2 mL of 10% TCA and ^32P incorporation was determined with a beta plate counter (Wallac Inc., Gaithersburg, Md.).

Chain of cdc2/cyclinB (P06493 whole entry, species assumed): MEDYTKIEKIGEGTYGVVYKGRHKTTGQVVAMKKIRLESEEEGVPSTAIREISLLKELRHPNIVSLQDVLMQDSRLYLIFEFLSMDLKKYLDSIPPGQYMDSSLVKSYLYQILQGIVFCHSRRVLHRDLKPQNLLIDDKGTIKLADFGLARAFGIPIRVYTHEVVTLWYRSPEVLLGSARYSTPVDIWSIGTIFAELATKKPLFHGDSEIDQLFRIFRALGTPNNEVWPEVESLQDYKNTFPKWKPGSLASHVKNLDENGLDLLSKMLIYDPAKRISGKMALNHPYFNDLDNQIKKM
Chain of cdc2/cyclinB (P14635 whole entry partner, species assumed): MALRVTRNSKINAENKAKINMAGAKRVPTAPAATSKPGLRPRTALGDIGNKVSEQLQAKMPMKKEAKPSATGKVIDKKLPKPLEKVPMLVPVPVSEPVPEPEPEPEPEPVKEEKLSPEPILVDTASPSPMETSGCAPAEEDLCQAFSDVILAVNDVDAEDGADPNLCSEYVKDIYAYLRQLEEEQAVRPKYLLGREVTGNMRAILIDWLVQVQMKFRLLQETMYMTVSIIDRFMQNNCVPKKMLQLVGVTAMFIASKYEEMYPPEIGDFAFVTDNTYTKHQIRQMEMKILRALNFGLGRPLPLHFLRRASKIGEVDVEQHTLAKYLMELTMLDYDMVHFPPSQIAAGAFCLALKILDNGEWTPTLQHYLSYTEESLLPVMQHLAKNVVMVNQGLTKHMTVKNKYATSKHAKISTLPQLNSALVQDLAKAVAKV
Chain of cdk4/D (P11802 whole entry, species assumed): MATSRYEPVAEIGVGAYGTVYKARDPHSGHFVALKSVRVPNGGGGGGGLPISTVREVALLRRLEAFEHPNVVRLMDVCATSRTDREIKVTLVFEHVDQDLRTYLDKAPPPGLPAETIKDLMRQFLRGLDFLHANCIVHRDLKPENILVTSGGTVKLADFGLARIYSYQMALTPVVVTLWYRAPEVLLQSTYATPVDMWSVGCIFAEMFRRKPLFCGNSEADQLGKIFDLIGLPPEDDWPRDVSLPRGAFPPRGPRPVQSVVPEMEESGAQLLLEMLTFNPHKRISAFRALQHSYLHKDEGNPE
Chain of cdk4/D (P24385 whole entry partner, species assumed): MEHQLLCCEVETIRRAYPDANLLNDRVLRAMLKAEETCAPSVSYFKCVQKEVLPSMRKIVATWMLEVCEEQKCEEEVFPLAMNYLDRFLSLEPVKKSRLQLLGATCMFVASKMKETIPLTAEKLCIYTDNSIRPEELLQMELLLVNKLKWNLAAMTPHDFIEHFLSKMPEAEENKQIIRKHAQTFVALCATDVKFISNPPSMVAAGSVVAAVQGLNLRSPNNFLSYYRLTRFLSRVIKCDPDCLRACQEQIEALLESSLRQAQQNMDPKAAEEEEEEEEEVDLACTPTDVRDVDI

SMILES | inhibition of neointima formation (neointima formation) | HSV replication [1] | melting point | IC50 (cdk2/A) | IC50 (cdc2/cyclinB) | IC50 (cdk2/cyclinE) | IC50 (cdk4/D) | IC50 (cdk4/D; 25 μM ATP, retinoblastoma substrate, 25° C., 15 minutes, read-out: Cdk4 IC50)
COc1ccc(CNc2nc(N(CCO)CCO)nc3c2ncn3C(C)C)cc1 [CVT-313] | greater than 80% | – | – | – | – | – | – | –
CC[C@H](CO)Nc1nc(NCc2ccccc2)c2ncn(C(C)C)c2n1 [roscovitine] | – | inhibited | – | – | – | – | – | –
COc1ccc2cnc(Nc3ccccc3)nc2c1C(C)C [Example 19, (8-Isopropyl-7-methoxy-quinazolin-2-yl)-phenyl-amine] | – | – | 172 to 173 °C | 253 nM | 1040 nM | 1080 nM | 125 nM | –
COc1ccc2cnc(Nc3ccc(N4CCNCC4)c(F)c3)nc2c1C1CCCC1 [Example 50, (8-Cyclopentyl-7-methoxy-quinazolin-2-yl)-(3-fluoro-4-piperazin-1-yl-phenyl)-amine] | – | – | 228 to 229 °C | 62 nM | 214 nM | 300 nM | 4 nM | –
COc1ccc2cnc(Nc3ccc(F)c(C)c3)nc2c1C(C)C [Example 46, (4-Fluoro-3-methyl-phenyl)-(8-isopropyl-7-methoxy-quinazolin-2-yl)-amine] | – | – | 169 to 171 °C | 246 nM | 1200 nM | 1200 nM | – | 1500 nM
